# Measurements reported in patent US20240208912A1 (Mirati Therapeutics, Inc., priority 2021, published 2024).
# Read-outs that look alike come from different tables or passages of the source.
# Experiments:
# [1] = tested on: HCT116 homozygous MTAP knockout cells; test: Proliferation assay (CellTiter-Glo, 10 days) in HCT116 homozygous MTAP knockout cells; format: cell-based; conditions: CellTiter-Glo after 10 days of treatment, read-out: Proliferation IC50 (nM) HCT116 MTAP_KO
# Outline: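 MTAP-null HCT116 clone made by CRISPR/Cas9 knockout of both alleles, tested beside parental cells. Cells dosed the day after seeding, split 1:10 on day 6 into fresh medium with the same compound level, and read on day 11 by CellTiter-Glo. IC50 taken after 10 days of exposure.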
# HCT116 parental cells = test: Proliferation assay (CellTiter-Glo, 10 days) in HCT116 parental cells; format: cell-based; conditions: CellTiter-Glo after 10 days of treatment
# Protocol: (§1) Control samples were analyzed in parallel.
# Briefly, on Day 0, 250 HCT116 parental or HCT116 homozygous MTAP knockout cell were seeded in 96 well plates in McCoy's 5A supplemented with […] fetal bovine serum and pen/strep and the cells were incubated overnight at 37° C. plus 5% CO2.
# The following day, cells were treated with DMSO vehicle control or a dose response of PRMT5 inhibitors and incubated at 37 C plus 5% CO2 for five days. On Day 6, the cells were trypsinized and split 1:10 into new 96-well plates with fresh medium containing the same concentration of PRMT5 inhibitor and incubated for an additional 5 days at 37° C. plus 5% CO^2.
# On Day 11, the viability of the cells was measured using a CTG assay kit (CellTiter-Glo; Promega cat.no G7573) in accordance with the manufacturer's instructions. The IC50 values for each compound after 10 days of treatment were calculated using GraphPad PRISM software.
# [2] = tested on: PRMT5-dependent Symmetric Di-methyl Arginine signal in HCT116 parental cells; test: SYM11 In-Cell Western in HCT116 parental cells; format: cell-based; conditions: read-out: In-cell-Western (SYM11) IC50 (nM) HCT216 parental
# Protocol: as §1
# (§2) Briefly, on Day 0, 2,000 HCT116 parental or HCT116 homozygous MTAP knockout cells were seeded in 96 well plates in McCoy's 5A supplemented with 10% fetal bovine serum and pen/strep and the cells were incubated overnight at 37° C. plus 5% CO2. The following day, cells were treated with DMSO vehicle control or a dose response of PRMT5 inhibitors, and incubated at 37° C. plus 5% CO^2 for four days.
# (§3) After 4 days of treatment, the cells were fixed by adding 50 μl of 4% paraformaldehyde solution to each well and the cells were incubated for 20 min at room temperature. The paraformaldehyde solution was removed, 150 μl of ice-cold methanol was added and the plate was placed −20° C. for 10 minutes. The methanol was removed, 150 μl of Odyssey Blocking buffer+0.05% Tween20 was added and the plate was incubated at room temperature with shaking for one hour.
# (§4) The primary SYM11 antibody solution was removed by aspiration and the wells were washed three consecutive times with phosphate buffered saline containing 0.1% Tween-20 (PBST).
# (§5) The secondary antibody solution was removed by aspiration and the wells were washed three consecutive times with PBST.
# (§6) The SYM11 signal and the DRAQ5 signal were quantified using a Li-Cor Odyssey machine reading at […], respectively. The SYM11/DRAQ5 ratio was used to calculate the inhibition of Symmetric Dimethyl Arginine as percent of DMSO control.
# PRMT5/MEP50 complex = biological target: T1, PRMT5/MEP50 complex (Homo sapiens, UniProt O14744); test: PRMT5:MEP50 HotSpot Assay (full-length histone H2A substrate, plus and minus MTA); format: biochemical; conditions: IC50 + 2 μM MTA, in the presence of 2 μM MTA
# T1 construct: purchased Reaction Biology Corporation
# T1 sequence (O14744 2-637 limits assumed): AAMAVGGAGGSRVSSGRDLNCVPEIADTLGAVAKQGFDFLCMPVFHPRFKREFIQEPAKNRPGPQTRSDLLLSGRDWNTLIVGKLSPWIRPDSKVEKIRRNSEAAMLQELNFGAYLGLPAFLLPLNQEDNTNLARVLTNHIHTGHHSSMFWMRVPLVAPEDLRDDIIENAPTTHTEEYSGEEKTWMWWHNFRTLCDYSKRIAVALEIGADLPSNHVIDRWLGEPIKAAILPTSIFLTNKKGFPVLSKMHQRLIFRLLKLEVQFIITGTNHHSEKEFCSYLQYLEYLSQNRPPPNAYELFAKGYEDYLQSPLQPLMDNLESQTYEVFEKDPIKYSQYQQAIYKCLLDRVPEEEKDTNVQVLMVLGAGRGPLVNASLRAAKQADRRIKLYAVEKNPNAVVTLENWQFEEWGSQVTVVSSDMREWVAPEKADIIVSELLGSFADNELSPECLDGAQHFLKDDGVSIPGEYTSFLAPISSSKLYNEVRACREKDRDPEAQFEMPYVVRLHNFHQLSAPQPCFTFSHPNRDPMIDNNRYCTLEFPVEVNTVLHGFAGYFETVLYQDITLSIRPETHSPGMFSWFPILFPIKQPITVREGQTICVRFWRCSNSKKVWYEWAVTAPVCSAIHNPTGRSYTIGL
# T1 sequence (Q9BQA1 2-342 partner limits assumed): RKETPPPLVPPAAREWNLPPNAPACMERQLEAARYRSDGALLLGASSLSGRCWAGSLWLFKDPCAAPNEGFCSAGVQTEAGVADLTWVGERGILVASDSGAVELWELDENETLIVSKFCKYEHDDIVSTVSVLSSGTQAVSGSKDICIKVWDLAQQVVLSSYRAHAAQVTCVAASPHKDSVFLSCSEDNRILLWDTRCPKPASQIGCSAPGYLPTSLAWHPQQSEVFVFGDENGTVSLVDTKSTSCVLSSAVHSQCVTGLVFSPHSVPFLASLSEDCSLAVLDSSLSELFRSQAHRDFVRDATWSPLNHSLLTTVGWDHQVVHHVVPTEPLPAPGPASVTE
# Outline: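 Radiometric HotSpot format using recombinant full-length histone H2A as substrate, run with and without MTA. Reactions were stopped and spotted onto filter paper. Tritiated H2A was quantified by scintillation counting.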
# [3] = tested on: PRMT5-dependent Symmetric Di-methyl Arginine signal in HCT116 homozygous MTAP Knockout cells; test: SYM11 In-Cell Western in HCT116 homozygous MTAP knockout cells; format: cell-based
# Protocol: HCT116 cells were genetically engineered to knock out the function of both MTAP alleles using a CRISPR/Cas9 system and an sgRNA targeting the MTAP gene. Following Cas9/MTAP sgRNA transduction, clones were screened to confirm that each allele of the MTAP gene had been inactivated (i.e., homozygous MTAP knock out) creating an MTAP-deficient cell.
# as §1, §2, §3, §4, §5, §6
# [4] = HCT116 parental cells, 4 days of treatment, SYM11/DRAQ5 ratio as percent of DMSO control
# [5] = 4 days of treatment, SYM11/DRAQ5 ratio as percent of DMSO control, read-out: In-cell-Western (SYM11) IC50 (nM) HCT116 MTAP_KO
# [6] = Homo sapiens, HCT-116, 96 h, 4 days of treatment, SYM11/DRAQ5 ratio as percent of DMSO control, read-out: In-cell-Western (SYM11) IC50 (nM) HCT116 MTAP_KO
# [7] = Homo sapiens, HCT-116, 96 h, HCT116 parental cells, 4 days of treatment, SYM11/DRAQ5 ratio as percent of DMSO control
structure (smiles),measurement,setting,value
"N#Cc1c(OC2CC2)cc(Cl)c(F)c1-c1c(-c2ccc3c(=O)[nH]nc(CN)c3c2)cnn1C(F)F (atropisomer, axis not shown; (M)) [Example 16-106, (M)-2-(4-(4-(aminomethyl)-1-oxo-1,2-dihydrophthalazin-6-yl)-1-(difluoromethyl)-1H-pyrazol-5-yl)-4-chloro-6-cyclopropoxy-3-fluorobenzonitrile]",IC50,"[1]; Homo sapiens, HCT-116, 240 h",11 nM
same,IC50,"HCT116 parental cells; Homo sapiens, HCT-116, 240 h",1950 nM
"Cn1ncc(-c2ccc3c(=O)[nH]nc(CN)c3c2)c1-c1c(F)cc2ccccc2c1C#N (single isomer, unassigned) [Example 16-1]",IC50,HCT116 parental cells,757 nM
same,IC50,[2]; [4],316 nM
same,IC50,PRMT5/MEP50 complex,38 nM
"Cn1ncc(-c2ccc3c(=O)[nH]nc(CN)c3c2)c1-c1c(F)cc2ccccc2c1C#N (single isomer, unassigned) [Example 16-2]",IC50,"[1]; Homo sapiens, HCT-116, 240 h",224 nM
same,IC50,[3]; [5],73 nM
same,IC50,HCT116 parental cells,5920 nM
same,IC50,[2]; [4],> 1000 nM
same,IC50,PRMT5/MEP50 complex,111 nM
"Cc1c(F)c(-c2c(-c3ccc4c(=O)[nH]nc(CN)c4c3)cnn2C)c(C#N)c2ccccc12 (single isomer, unassigned) [Example 16-13, (P)-2-[4-[4-(aminomethyl)-1-oxo-2H-phthalazin-6-yl]-2-methyl-pyrazol-3-yl]-3-fluoro-4-methyl-naphthalene-1-carbonitrile]",IC50,[1],211 nM
same,IC50,[3]; [5],232 nM
same,IC50,HCT116 parental cells,770 nM
same,IC50,[2]; [4],> 1000 nM
same,IC50,PRMT5/MEP50 complex,237 nM
"Cc1c(F)c(-c2c(-c3ccc4c(=O)[nH]nc(CN)c4c3)cnn2C)c(C#N)c2ccccc12 (single isomer, unassigned) [Example 16-14, (M)-2-[4-[4-(aminomethyl)-1-oxo-2H-phthalazin-6-yl]-2-methyl-pyrazol-3-yl]-3-fluoro-4-methyl-naphthalene-1-carbonitrile]",IC50,[1],8 nM
same,IC50,[3]; [5],3 nM
same,IC50,HCT116 parental cells,4400 nM
same,IC50,[2]; [4],378 nM
same,IC50,PRMT5/MEP50 complex,12.3 nM
"CCOc1cc(-c2cnn(C)c2-c2c(F)c(C)c3cc(Cl)cnc3c2C#N)cc2c(CN)n[nH]c(=O)c12 (single isomer, unassigned) [Example 16-100, (M)-7-(4-(4-(aminomethyl)-8-ethoxy-1-oxo-1,2-dihydrophthalazin-6-yl)-1-methyl-1H-pyrazol-5-yl)-3-chloro-6-fluoro-5-methylquinoline-8-carbonitrile]",IC50,"HCT116 parental cells; Homo sapiens, HCT-116, 240 h",> 10000 nM
same,IC50,PRMT5/MEP50 complex,1060 nM
"Cn1ncc(-c2ccc3c(=O)[nH]nc(CN)c3c2)c1-c1c(F)c(Cl)cc(OC2CC2)c1C#N [Example 4-230, 2-(4-(4-(aminomethyl)-1-oxo-1,2-dihydrophthalazin-6-yl)-1-methyl-1H-pyrazol-5-yl)-4-chloro-6-cyclopropoxy-3-fluorobenzonitrile]",IC50,"[3]; read-out: In-cell-Western (SYM11) IC50 (nM) HCT116 MTAP_KO, 4 days of treatment, SYM11/DRAQ5 ratio as percent of DMSO control",6 nM
same,IC50,"[2]; Homo sapiens, HCT-116, 96 h",> 1000 nM
"Cn1ncc(-c2ccc3c(=O)[nH]nc(CN)c3c2)c1-c1sc2ccc(Cl)cc2c1C#N [Example 4-262, 2-[4-[4-(aminomethyl)-1-oxo-2H-phthalazin-6-yl]-2-methyl-pyrazol-3-yl]-5-chloro-benzothiophene-3-carbonitrile]",IC50,"[1]; Homo sapiens, HCT-116, 240 h",281 nM
same,IC50,[3]; [6],98 nM
same,IC50,PRMT5/MEP50 complex,108 nM
"Cn1ncc(-c2ccc3c(=O)[nH]nc(CN)c3c2)c1-c1c(C#N)sc2ccccc12 [Example 4-266, 3-[4-[4-(aminomethyl)-1-oxo-2H-phthalazin-6-yl]-2-methyl-pyrazol-3-yl]benzothiophene-2-carbonitrile]",IC50,"[1]; Homo sapiens, HCT-116, 240 h",312 nM
same,IC50,[3]; [6],324 nM
same,IC50,PRMT5/MEP50 complex,507 nM
"Cn1ncc(-c2ccc3c(=O)[nH]nc(CN)c3c2)c1-c1csc2cccc(=O)n12 [Example 4-267, 3-[4-[4-(aminomethyl)-1-oxo-2H-phthalazin-6-yl]-2-methyl-pyrazol-3-yl] thiazolo[3,2-a]pyridin-5-one]",IC50,"[1]; Homo sapiens, HCT-116, 240 h",10000 nM
same,IC50,[3]; [6],1000 nM
same,IC50,PRMT5/MEP50 complex,6140 nM
"Cn1ncc(-c2cc(C(F)F)c3c(=O)[nH]nc(CN)c3c2)c1-c1sc2ccccc2c1C#N [Example 10-21, 2-[4-[4-(aminomethyl)-8-(difluoromethyl)-1-oxo-2H-phthalazin-6-yl]-2-methyl-pyrazol-3-yl]benzothiophene-3-carbonitrile]",IC50,"[1]; Homo sapiens, HCT-116, 240 h",35 nM
same,IC50,[3]; [6],35 nM
same,IC50,[2]; [7],> 1000 nM
same,IC50,PRMT5/MEP50 complex,4.09 nM
"Cn1ncc(-c2cc(Cl)c3c(=O)[nH]nc(CN)c3c2)c1-c1sc2ccccc2c1C#N [Example 10-22, 2-(4-(4-(aminomethyl)-8-chloro-1-oxo-1,2-dihydrophthalazin-6-yl)-1-methyl-1H-pyrazol-5-yl)benzo[b]thiophene-3-carbonitrile]",IC50,"[1]; Homo sapiens, HCT-116, 240 h",52 nM
same,IC50,[3]; [6],17 nM
same,IC50,PRMT5/MEP50 complex,86.8 nM
"Cc1cc(-c2cnn(C)c2-c2sc3ccccc3c2C#N)cc2c(CN)n[nH]c(=O)c12 [Example 10-23, 2-[4-[4-(aminomethyl)-8-methyl-1-oxo-2H-phthalazin-6-yl]-2-methyl-pyrazol-3-yl]benzo-thiophene-3-carbonitrile]",IC50,"[1]; Homo sapiens, HCT-116, 240 h",30 nM
same,IC50,[3]; [6],15 nM
same,IC50,[2]; [7],> 1000 nM
same,IC50,PRMT5/MEP50 complex,126 nM
"Cn1ncc(-c2cc([C@@H]3CCCO3)c3c(=O)[nH]nc(CN)c3c2)c1-c1sc2ccccc2c1C#N [Example 15-3, (S)-2-(4-(4-(aminomethyl)-1-oxo-8-(THF-2-yl)-1,2-dihydrophthalazin-6-yl)-1-methyl-1H-pyrazol-5-yl)benzo[b]thiophene-3-carbonitrile]",IC50,"[1]; Homo sapiens, HCT-116, 240 h",22 nM
same,IC50,[3]; [6],6 nM
same,IC50,[2]; [7],330 nM
same,IC50,PRMT5/MEP50 complex,16.3 nM
"Cn1ncc(-c2cc([C@H]3CCCO3)c3c(=O)[nH]nc(CN)c3c2)c1-c1sc2ccccc2c1C#N [Example 15-4, (R)-2-(4-(4-(aminomethyl)-1-oxo-8-(THF-2-yl)-1,2-dihydrophthalazin-6-yl)-1-methyl-1H-pyrazol-5-yl)benzo[b]thiophene-3-carbonitrile]",IC50,"[1]; Homo sapiens, HCT-116, 240 h",1110 nM
same,IC50,[3]; [6],551 nM
same,IC50,[2]; [7],551 nM
same,IC50,PRMT5/MEP50 complex,261 nM
"COCc1cc(-c2cnn(C)c2-c2sc3ccccc3c2C#N)cc2c(CN)n[nH]c(=O)c12 [Example 15-5, 2-[4-[4-(aminomethyl)-8-(methoxymethyl)-1-oxo-2H-phthalazin-6-yl]-2-methyl-pyrazol-3-yl]benzothiophene-3-carbonitrile]",IC50,"[1]; Homo sapiens, HCT-116, 240 h",23 nM
same,IC50,[3]; [6],5 nM
same,IC50,[2]; [7],595 nM
"Cn1ncc(-c2ccc3c(=O)[nH]cc(CN)c3c2)c1-c1ccc2ccccc2c1C#N [Example 18-2, 2-[4-[4-(aminomethyl)-1-oxo-2H-isoquinolin-6-yl]-2-methyl-pyrazol-3-yl]naphthalene-1-carbonitrile]",IC50,"[1]; Homo sapiens, HCT-116, 240 h",2870 nM
same,IC50,[3]; [6],> 1000 nM
same,IC50,PRMT5/MEP50 complex,2930 nM
